{
  "source": "PubChem BioAssay AID192",
  "about": "(DTP/NCI, 2004)",
  "test_system": "BDF1 mice, B16 melanoma ip, median survival T/C",
  "assay": "NCI In Vivo Anticancer Drug Screen. Data for tumor model B16 Melanoma (intraperitoneal) in B6D2F1 (BDF1) mice",
  "conditions": "endpoint: median survival time, higher = longer survival",
  "summary_of_the_method": "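Vehicle-treated animals serve as the reference (C); treated animals (T) are scored for survival or tumor size after tumor transplantation.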",
  "key": {"[1]": {"conditions": "dose: 50.0 mg/kg/injection, schedule: Q01DX009 (ip), vehicle: Klucel (hydroxypropylcellulose) (HPC)"}, "[2]": {"conditions": "dose: 100.0 mg/kg/injection, schedule: Q01DX009 (ip), vehicle: Klucel (hydroxypropylcellulose) (HPC)"}, "[3]": {"conditions": "dose: 50.0 mg/kg/injection, schedule: Q01DX009 (ip), vehicle: saline"}, "[4]": {"conditions": "dose: 100.0 mg/kg/injection, schedule: Q01DX009 (ip), vehicle: saline"}, "[5]": {"conditions": "dose: 200.0 mg/kg/injection, schedule: Q01DX009 (ip), vehicle: saline"}, "[6]": {"conditions": "dose: 400.0 mg/kg/injection, schedule: Q01DX009 (ip), vehicle: saline"}},
  "note": "Values joined by “and” are separate entries in the source; they are usually repeats but may differ in a detail not shown here. Equal entries are not always repeated. Inconclusive results and toxic doses are left out. Square brackets hold non-standard residues; d marks the D form. Peptide text beside a SMILES is read from it. ξ: configuration not given here. ξH = NC(Cc1c[nH]cn1)C(=O)O",
  "data": [
    {"smiles": "O=C(NC(Cc1ccccc1)C(=O)CCl)OCc1ccccc1", "note": "(stereo not drawn)", "values": [
      {"measurement": "T/C", "setting": "dose: 12.5 mg/kg/injection, schedule: Q01DX009 (ip), vehicle: Klucel (hydroxypropylcellulose) (HPC)", "result": "100 % of control"},
      {"measurement": "T/C", "setting": "dose: 25.0 mg/kg/injection, schedule: Q01DX009 (ip), vehicle: Klucel (hydroxypropylcellulose) (HPC)", "result": "97 % of control"}
    ]},
    {"smiles": "Cc1ccc(NC(=O)N(CCCl)N=O)cc1C", "values": [
      {"measurement": "T/C", "setting": "dose: 3.12 mg/kg/injection, schedule: Q01DX009 (ip), vehicle: Klucel (hydroxypropylcellulose) (HPC)", "result": "150 % of control"},
      {"measurement": "T/C", "setting": "dose: 6.25 mg/kg/injection, schedule: Q01DX009 (ip), vehicle: Klucel (hydroxypropylcellulose) (HPC)", "result": "150 % of control"}
    ]},
    {"smiles": "CC1OC(OCc2ccc3c(c2)C(=O)c2ccccc2C3=O)CC(N)C1O", "note": "(stereo not drawn)", "values": [
      {"measurement": "T/C", "setting": "dose: 1.56 mg/kg/injection, schedule: Q01DX009 (ip), vehicle: water", "result": "102 % of control"},
      {"measurement": "T/C", "setting": "dose: 3.13 mg/kg/injection, schedule: Q01DX009 (ip), vehicle: water", "result": "93 % of control"},
      {"measurement": "T/C", "setting": "dose: 6.25 mg/kg/injection, schedule: Q01DX009 (ip), vehicle: water", "result": "115 % of control"},
      {"measurement": "T/C", "setting": "dose: 12.5 mg/kg/injection, schedule: Q01DX009 (ip), vehicle: water", "result": "115 % of control"},
      {"measurement": "T/C", "setting": "dose: 50.0 mg/kg/injection, schedule: Q01DX009 (ip), vehicle: water", "result": "94 % of control"}
    ]},
    {"smiles": "O=C1/C(=N/O)CCc2ccccc21", "values": [
      {"measurement": "T/C", "setting": "[1]", "result": "91 % of control"},
      {"measurement": "T/C", "setting": "[2]", "result": "100 % of control"}
    ]},
    {"smiles": "Cc1c(Cl)cccc1NC(=O)c1ccc(Cl)cc1", "values": [
      {"measurement": "T/C", "setting": "dose: 75.0 mg/kg/injection, schedule: Q01DX009 (ip), vehicle: Klucel (hydroxypropylcellulose) (HPC)", "result": "94 % of control"},
      {"measurement": "T/C", "setting": "dose: 150.0 mg/kg/injection, schedule: Q01DX009 (ip), vehicle: Klucel (hydroxypropylcellulose) (HPC)", "result": "90 % of control"}
    ]},
    {"smiles": "NCC(=O)NCC(=O)NC(Cc1cnc[nH]1)C(=O)O", "note": "(stereo not drawn) (H-Gly-Gly-[ξH]-OH)", "values": [
      {"measurement": "T/C", "setting": "[3]", "result": "92 % of control"},
      {"measurement": "T/C", "setting": "[4]", "result": "99 % of control"},
      {"measurement": "T/C", "setting": "[5]", "result": "88 % of control"},
      {"measurement": "T/C", "setting": "[6]", "result": "101 % of control"}
    ]},
    {"smiles": "COc1cc(C(O)C(Cl)(Cl)Cl)ccc1O", "note": "(stereo not drawn)", "values": [
      {"measurement": "T/C", "setting": "dose: 100.0 mg/kg/injection, schedule: Q01DX009 (ip), vehicle: other", "result": "94 % of control"},
      {"measurement": "T/C", "setting": "dose: 200.0 mg/kg/injection, schedule: Q01DX009 (ip), vehicle: other", "result": "91 % of control"}
    ]},
    {"smiles": "C=CC1CN2CCC1CC2C(O)c1ccnc2ccc(OC)cc12", "note": "(stereo not drawn) (tested in a mixture with another compound)", "values": [
      {"measurement": "T/C", "setting": "dose: 50.0 mg/kg/injection, schedule: Q01DX009 (ip), vehicle: saline with Tween-80", "result": "107 % of control"},
      {"measurement": "T/C", "setting": "dose: 100.0 mg/kg/injection, schedule: Q01DX009 (ip), vehicle: saline with Tween-80", "result": "107 % of control"},
      {"measurement": "T/C", "setting": "dose: 200.0 mg/kg/injection, schedule: Q01DX009 (ip), vehicle: saline with Tween-80", "result": "101 % of control"}
    ]},
    {"smiles": "O=C1N=C(Oc2ccccc2)SC1=O", "values": [
      {"measurement": "T/C", "setting": "dose: 12.5 mg/kg/injection, schedule: Q01DX009 (ip), vehicle: saline with Tween-80", "result": "101 % of control"},
      {"measurement": "T/C", "setting": "dose: 25.0 mg/kg/injection, schedule: Q01DX009 (ip), vehicle: saline with Tween-80", "result": "96 % of control"}
    ]},
    {"smiles": "O=C1c2ccccc2-c2ncccc21", "values": [
      {"measurement": "T/C", "setting": "[1]", "result": "100 % of control"},
      {"measurement": "T/C", "setting": "[2]", "result": "87 % of control"},
      {"measurement": "T/C", "setting": "dose: 200.0 mg/kg/injection, schedule: Q01DX009 (ip), vehicle: Klucel (hydroxypropylcellulose) (HPC)", "result": "96 % of control"}
    ]},
    {"smiles": "COc1cc2c(Cc3ccc(OC)c(OC)c3)[n+](Cc3ccccc3)ccc2cc1NCc1ccccc1", "values": [
      {"measurement": "T/C", "setting": "dose: 0.78 mg/kg/injection, schedule: Q01DX009 (ip), vehicle: saline with Tween-80", "result": "105 % of control"},
      {"measurement": "T/C", "setting": "dose: 1.56 mg/kg/injection, schedule: Q01DX009 (ip), vehicle: saline with Tween-80", "result": "106 % of control"},
      {"measurement": "T/C", "setting": "dose: 3.12 mg/kg/injection, schedule: Q01DX009 (ip), vehicle: saline with Tween-80", "result": "110 % of control"},
      {"measurement": "T/C", "setting": "dose: 6.25 mg/kg/injection, schedule: Q01DX009 (ip), vehicle: saline with Tween-80", "result": "110 % of control"}
    ]},
    {"smiles": "COC(=O)Nc1nc2ccc(C(=O)c3ccccc3)cc2[nH]1", "values": [
      {"measurement": "T/C", "setting": "dose: 2.0 mg/kg/injection, schedule: Q04DX003 (ip), vehicle: saline with Tween-80", "result": "95 % of control"},
      {"measurement": "T/C", "setting": "dose: 4.0 mg/kg/injection, schedule: Q04DX003 (ip), vehicle: saline with Tween-80", "result": "106 % of control"},
      {"measurement": "T/C", "setting": "dose: 8.0 mg/kg/injection, schedule: Q04DX003 (ip), vehicle: saline with Tween-80", "result": "101 % of control"},
      {"measurement": "T/C", "setting": "dose: 15.0 mg/kg/injection, schedule: Q04DX003 (ip), vehicle: saline with Tween-80", "result": "114 % of control"},
      {"measurement": "T/C", "setting": "dose: 16.0 mg/kg/injection, schedule: Q04DX003 (ip), vehicle: saline with Tween-80", "result": "103 % of control"},
      {"measurement": "T/C", "setting": "dose: 200.0 mg/kg/injection, schedule: Q04DX003 (oral), vehicle: saline with Tween-80", "result": "115 % of control"}
    ]},
    {"smiles": "CNCC(O)c1ccc(O)cc1", "note": "(stereo not drawn)", "values": [
      {"measurement": "T/C", "setting": "dose: 25.0 mg/kg/injection, schedule: Q01DX009 (ip), vehicle: saline", "result": "110 % of control"},
      {"measurement": "T/C", "setting": "[3]", "result": "115 % of control and 121 % of control"},
      {"measurement": "T/C", "setting": "[4]", "result": "110 % of control and 121 % of control"},
      {"measurement": "T/C", "setting": "dose: 150.0 mg/kg/injection, schedule: Q01DX009 (ip), vehicle: saline", "result": "91 % of control"},
      {"measurement": "T/C", "setting": "[5]", "result": "106 % of control and 123 % of control"},
      {"measurement": "T/C", "setting": "dose: 300.0 mg/kg/injection, schedule: Q01DX009 (ip), vehicle: saline", "result": "94 % of control"},
      {"measurement": "T/C", "setting": "[6]", "result": "110 % of control"},
      {"measurement": "T/C", "setting": "dose: 600.0 mg/kg/injection, schedule: Q01DX009 (ip), vehicle: saline", "result": "89 % of control"}
    ]},
    {"smiles": "Cc1c(NCO)c(=O)n(-c2ccccc2)n1C", "values": [
      {"measurement": "T/C", "setting": "[4]", "result": "102 % of control"},
      {"measurement": "T/C", "setting": "[5]", "result": "94 % of control"},
      {"measurement": "T/C", "setting": "[6]", "result": "91 % of control"}
    ]}
  ]
}
